This is an account of results in publication PMC12081877 (Nature Communications, 2025).

Series [1] can be described thus: in vitro. Particulars: human, Caco-2, Caco-2 permeability Papp A to B.
Series [2] deals with M^pro. Particulars: cited from earlier work.

As to `Cn1cnc(Cn2c(=O)[nH]/c(=N\c3cc4cn(C)nc4cc3Cl)n(Cc3cc(F)c(F)cc3F)c2=O)n1` [Ensitrelvir], the Papp A→B in series [1] came out at 0.42 ×10⁻⁶ cm/s. For `C[C@H](NC(=O)[C@@H](c1cccnc1)N(C(=O)C(Cl)Cl)c1ccc(-c2ccccc2)cc1)c1ccccc1` [Jun9-62-2R], the IC50 in series [2] is 430 nM.

As to `CC(C)(C)[C@H](NC(=O)C(F)(F)F)C(=O)N1C[C@H]2[C@@H]([C@H]1C(=O)N[C@H](C#N)C[C@@H]1CCNC1=O)C2(C)C` [Nirmatrelvir], the Papp A→B in series [1] was below 0.1 ×10⁻⁶ cm/s.
